15 molecules from PubChem BioAssay AID330 (DTP/NCI, 2004) can be followed below.

Structures are written as SMILES. Where “and” joins values, the source holds several entries; their conditions need not be identical. Equal entries are not always repeated. Inconclusive results and toxic doses are left out.

For this assay, the system named is P388 leukemia ip, CD2F1 mice, survival T/C. In words: NCI In Vivo Anticancer Drug Screen. Data for tumor model P388 Leukemia (intraperitoneal) in CD2F1 (CDF1) mice. Particulars: endpoint: median survival time, higher = longer survival. The gist of the method: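 Mice carrying the transplanted tumor received test compound or vehicle. Survival was recorded in each group, and the value is the treated-group measurement divided by that of the vehicle-treated control group.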

Setting [1] is: dose: 50.0 mg/kg/injection, schedule: Q01DX005 (ip), vehicle: saline with Tween-80.
Setting [2] is: dose: 100.0 mg/kg/injection, schedule: Q01DX005 (ip), vehicle: saline with Tween-80.
Setting [3] is: dose: 200.0 mg/kg/injection, schedule: Q01DX005 (ip), vehicle: saline with Tween-80.
The mark [4] stands for this setting: dose: 50.0 mg/kg/injection, schedule: Q01DX009 (ip), vehicle: Klucel (hydroxypropylcellulose) (HPC).

For `COc1cc2c(cc1OC)NCC1COc3c(ccc(OC)c3OC)C1=N2` (stereo unspecified), the T/C was 96 % of control under setting [1], 88 % of control under setting [2] and 92 % of control under setting [3].

`CC(=O)N=C1C=C(NC(C)=O)C(=O)c2ccccc21`: the T/C by setting is: (dose: 6.25 mg/kg/injection, schedule: Q01DX009 (ip), vehicle: Klucel (hydroxypropylcellulose) (HPC)) 103 % of control; (dose: 12.5 mg/kg/injection, schedule: Q01DX009 (ip), vehicle: Klucel (hydroxypropylcellulose) (HPC)) 99 % of control and 100 % of control and 116 % of control; (dose: 25.0 mg/kg/injection, schedule: Q01DX009 (ip), vehicle: Klucel (hydroxypropylcellulose) (HPC)) 100 % of control and 105 % of control and 124 % of control; under setting [4], 112 % of control.

In the case of `Cc1c2ncccc2c(C)c2c1[nH]c1ccccc12`, the T/C runs as follows: (dose: 25.0 mg/kg/injection, schedule: Q04DX002 (ip), vehicle: saline with Tween-80) 100 % of control; (dose: 50.0 mg/kg/injection, schedule: Q04DX002 (ip), vehicle: saline with Tween-80) 91 % of control; (dose: 100.0 mg/kg/injection, schedule: Q04DX002 (ip), vehicle: saline with Tween-80) 98 % of control; (dose: 200.0 mg/kg/injection, schedule: Q04DX002 (ip), vehicle: saline with Tween-80) 89 % of control.

On to `O/N=C(/CN1CCOCC1)c1ccccc1`, for which the T/C is 105 % of control under setting [4]; 100 % of control (dose: 100.0 mg/kg/injection, schedule: Q01DX009 (ip), vehicle: Klucel (hydroxypropylcellulose) (HPC)); 102 % of control (dose: 200.0 mg/kg/injection, schedule: Q01DX009 (ip), vehicle: Klucel (hydroxypropylcellulose) (HPC)).

With `O=C1C(Cl)=C(N2CCOCC2)C(=O)C(Cl)=C1N1CCOCC1`, the T/C is 99 % of control (dose: 50.0 mg/kg/injection, schedule: Q01DX005 (ip), vehicle: suspension in saline) and 104 % of control (dose: 100.0 mg/kg/injection, schedule: Q01DX005 (ip), vehicle: suspension in saline).

`COc1cccc2c(NCCCCCCNc3c4ccccc4nc4c(OC)cccc34)c3ccccc3nc12`: the T/C was 123 % of control (dose: 0.62 mg/kg/injection, schedule: Q## X009 (ip), vehicle: lactic acid); 102 % of control (dose: 0.63 mg/kg/injection, schedule: Q01DX009 (ip), vehicle: other); 122 % of control (dose: 1.25 mg/kg/injection, schedule: Q01DX009 (ip), vehicle: other); 160 % of control (dose: 2.5 mg/kg/injection, schedule: Q## X009 (ip), vehicle: lactic acid); 161 % of control (dose: 5.0 mg/kg/injection, schedule: Q## X009 (ip), vehicle: lactic acid); 119 % of control (dose: 10.0 mg/kg/injection, schedule: Q## X009 (ip), vehicle: lactic acid).

Turning to `CCNC(=O)C12CCC(C)(C(=O)O1)C2(C)C` (stereo unspecified), the T/C by setting is: (dose: 60.0 mg/kg/injection, schedule: Q01DX005 (ip), vehicle: saline) 93 % of control; (dose: 120.0 mg/kg/injection, schedule: Q01DX005 (ip), vehicle: saline) 98 % of control; (dose: 240.0 mg/kg/injection, schedule: Q01DX005 (ip), vehicle: saline) 101 % of control.

In the case of `CC(C)=NNC1=NC(CC(C)C)P(=O)(NCCCCNP2(=O)SC(NN=C(C)C)=NC2CC(C)C)S1` (stereo unspecified), the T/C by setting is: under setting [1], 103 % of control; under setting [2], 103 % of control; under setting [3], 101 % of control.

For the molecule `C[N+](C)(C)CC1CS1` (stereo unspecified), the T/C (dose: 4.5 mg/kg/injection, schedule: Q01DX009 (ip), vehicle: saline) was 104 % of control; the T/C (dose: 9.0 mg/kg/injection, schedule: Q01DX009 (ip), vehicle: saline) is 95 % of control; the T/C (dose: 18.0 mg/kg/injection, schedule: Q01DX009 (ip), vehicle: saline) was 100 % of control.

In the case of `O=C1NN=C(c2ccccc2)SC1c1ccccc1` (stereo unspecified), the T/C is 93 % of control (dose: 12.5 mg/kg/injection, schedule: Q01DX005 (ip), vehicle: saline with Tween-80); 95 % of control (dose: 25.0 mg/kg/injection, schedule: Q01DX005 (ip), vehicle: saline with Tween-80); 90 % of control and 92 % of control under setting [1]; 90 % of control under setting [3].

In the case of `CN(C)CCO[Si](C)(c1ccccc1)c1ccc(F)cc1` (stereo unspecified), the T/C by setting is: (dose: 12.5 mg/kg/injection, schedule: Q01DX009 (ip), vehicle: saline with Tween-80) 100 % of control; (dose: 25.0 mg/kg/injection, schedule: Q01DX009 (ip), vehicle: saline with Tween-80) 101 % of control; (dose: 50.0 mg/kg/injection, schedule: Q01DX009 (ip), vehicle: saline with Tween-80) 98 % of control and 101 % of control; (dose: 100.0 mg/kg/injection, schedule: Q01DX009 (ip), vehicle: saline with Tween-80) 99 % of control; (dose: 200.0 mg/kg/injection, schedule: Q01DX009 (ip), vehicle: saline with Tween-80) 114 % of control.

On to `CCc1c(O)c2c([nH]c1=O)SC(C)(C)CC2=NCC(C)C`, for which the T/C is 93 % of control (dose: 50.0 mg/kg/injection, schedule: Q01DX005 (ip), vehicle: saline); 96 % of control (dose: 100.0 mg/kg/injection, schedule: Q01DX005 (ip), vehicle: saline); 94 % of control (dose: 200.0 mg/kg/injection, schedule: Q01DX005 (ip), vehicle: saline).

In the case of `CC1OC(OC2CCCc3c(O)c4c(c(O)c32)C(=O)c2ccccc2C4=O)CC(N)C1O` (stereo unspecified), the T/C was 104 % of control and 106 % of control (dose: 1.25 mg/kg/injection, schedule: Q04DX002 (ip), vehicle: water); 98 % of control and 111 % of control (dose: 2.5 mg/kg/injection, schedule: Q04DX002 (ip), vehicle: water); 98 % of control and 106 % of control (dose: 5.0 mg/kg/injection, schedule: Q04DX002 (ip), vehicle: water); 98 % of control and 106 % of control (dose: 10.0 mg/kg/injection, schedule: Q04DX002 (ip), vehicle: water).

Consider `COC(=O)C(Cc1c[nH]c2ccccc12)NC(=O)C(CCCCN)N(C(=O)OCc1ccccc1)C(=O)OCc1ccccc1` (stereo unspecified), for which the T/C under setting [1] is 92 % of control, the T/C under setting [2] was 91 % of control and the T/C under setting [3] is 86 % of control.

Regarding `c1ncc2[nH]cnc2n1`, the T/C reads like this: (dose: 100.0 mg/kg/injection, schedule: Q01DX009 (ip), vehicle: saline sonified) 100 % of control; (dose: 100.0 mg/kg/injection, schedule: Q04DX003 (ip), vehicle: saline) 104 % of control; (dose: 200.0 mg/kg/injection, schedule: Q01DX009 (ip), vehicle: saline sonified) 104 % of control; (dose: 200.0 mg/kg/injection, schedule: Q04DX003 (ip), vehicle: saline) 104 % of control; (dose: 400.0 mg/kg/injection, schedule: Q01DX009 (ip), vehicle: saline sonified) 100 % of control; (dose: 400.0 mg/kg/injection, schedule: Q04DX003 (ip), vehicle: saline) 104 % of control.
